The compounds below were run against human P2X3 receptor (Homo sapiens (Human), UniProt P56373) (assay: Evaluation of human P2X3 receptor inhibitory activity (Fluo-3 calcium fluorescence, FDSS 3000, ATP stimulation)). Settings: C6BU-1 cells stably expressing human P2X3 receptor.
Format: cell-based
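Also: stimulus was 50 nM ATP with fluorescence followed for 3 min, and the response per well was peak post-ATP fluorescence divided by the reading at measurement start.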

Chain of human P2X3 receptor (P56373 whole entry): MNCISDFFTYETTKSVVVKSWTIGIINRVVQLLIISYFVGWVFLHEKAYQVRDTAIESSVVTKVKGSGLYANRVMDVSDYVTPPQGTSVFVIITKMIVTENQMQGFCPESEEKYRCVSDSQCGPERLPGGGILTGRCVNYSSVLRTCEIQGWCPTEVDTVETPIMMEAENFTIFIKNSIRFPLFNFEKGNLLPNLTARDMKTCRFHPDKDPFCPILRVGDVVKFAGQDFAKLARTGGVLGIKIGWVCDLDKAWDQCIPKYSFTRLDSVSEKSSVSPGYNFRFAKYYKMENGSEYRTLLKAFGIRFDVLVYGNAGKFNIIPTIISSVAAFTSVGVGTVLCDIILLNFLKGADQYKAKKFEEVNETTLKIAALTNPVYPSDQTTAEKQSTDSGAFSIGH

| SMILES | IC50 [nM] |
| --- | --- |
| Cc1ccc(Cn2c(=O)n(C[C@H](C)C(=O)O)c(=O)[nH]/c2=N\c2ccc(OC3CCCCC3)nc2)cc1 [Compound I-1188] | 131 |
| Cc1ccc(Cn2c(=O)n(C[C@H](C)C(=O)O)c(=O)[nH]/c2=N\c2ccc(OC3CCCC3)cc2)cc1 [Compound I-1189] | 33 |
| C=Cc1cc(/N=c2\[nH]c(=O)n(CCC(=O)OCC)c(=O)n2Cc2ccc(C)cc2)ccc1OC(C)C [Compound I-1190] | 5 |
| C=Cc1cc(/N=c2\[nH]c(=O)n(C[C@H](C)C(=O)OC)c(=O)n2Cc2ccc(C)cc2)ccc1OCC [Compound I-1191] | 22 |
| C=Cc1cc(/N=c2\[nH]c(=O)n(CCC(=O)O)c(=O)n2Cc2ccc(C)cc2)ccc1OC(C)C [Compound I-1192] | 20 |
| COC(=O)[C@@H](C)Cn1c(=O)[nH]/c(=N\c2ccc(/C=C/C3CC3)cc2)n(Cc2ccc(C)cc2)c1=O [Compound I-1193] | 40 |
| C=Cc1cc(/N=c2\[nH]c(=O)n(C[C@H](C)C(=O)O)c(=O)n2Cc2ccc(C)cc2)ccc1OCC [Compound I-1194] | 31 |
| COC(=O)[C@@H](C)Cn1c(=O)[nH]/c(=N\c2ccc(Br)c(OC)c2)n(Cc2ccc(C)cc2)c1=O [Compound I-1195] | 221 |
| CCc1cc(/N=c2\[nH]c(=O)n(CCC(=O)O)c(=O)n2Cc2ccc(C)cc2)ccc1OC(C)C [Compound I-1199] | 36 |
| Cc1ccc(Cn2c(=O)n(C[C@H](C)C(=O)O)c(=O)[nH]/c2=N\c2ccc(/C=C/C3CC3)cc2)cc1 [Compound I-1200] | 45 |
| COC(=O)[C@@H](C)Cn1c(=O)[nH]/c(=N\c2cccc(OC)c2)n(Cc2ccc(C)cc2)c1=O [Compound I-1201] | 788 |
| COC(=O)[C@@H](C)Cn1c(=O)[nH]/c(=N\c2ccc(CCC3CC3)cc2)n(Cc2ccc(C)cc2)c1=O [Compound I-1202] | 93 |
| CCCCCc1ccc(/N=c2\[nH]c(=O)n(C[C@H](C)C(=O)OC)c(=O)n2Cc2ccc(C)cc2)cc1 [Compound I-1203] | 532 |
| CCOC(=O)CCn1c(=O)[nH]/c(=N\c2ccc(Oc3cccnc3)cc2)n(Cc2ccc(Cl)cc2)c1=O [Compound I-1204] | 5 |
| CCOC(=O)CCn1c(=O)[nH]/c(=N\c2ccc(Oc3ccncc3)cc2)n(Cc2ccc(Cl)cc2)c1=O [Compound I-1205] | 2 |
| O=C(O)CCn1c(=O)[nH]/c(=N\c2ccc(Oc3cccnc3)cc2)n(Cc2ccc(Cl)cc2)c1=O [Compound I-1206] | 43 |
| O=C(O)CCn1c(=O)[nH]/c(=N\c2ccc(Oc3ccncc3)cc2)n(Cc2ccc(Cl)cc2)c1=O [Compound I-1207] | 15 |
| COC(=O)[C@@H](C)Cn1c(=O)[nH]/c(=N\c2ccc(Oc3cccnc3C)cc2)n(Cc2ccc(C)cc2)c1=O [Compound I-1208] | 21 |
| CCCc1ccc(/N=c2\[nH]c(=O)n(C[C@H](C)C(=O)OC)c(=O)n2Cc2ccc(C)cc2)cc1C [Compound I-1210] | 37 |

| SMILES | IC50 [nM] |
| --- | --- |
| CCCc1ccc(/N=c2\[nH]c(=O)n(C[C@H](C)C(=O)OC)c(=O)n2Cc2ccc(Cl)cc2)cc1C [Compound I-1211] | 30 |
| CCCc1ccc(/N=c2\[nH]c(=O)n(C[C@H](C)C(=O)O)c(=O)n2Cc2ccc(C)cc2)cc1C [Compound I-1212] | 90 |
| CCCc1ccc(/N=c2\[nH]c(=O)n(C[C@H](C)C(=O)O)c(=O)n2Cc2ccc(Cl)cc2)cc1C [Compound I-1213] | 104 |
| Cc1ccc(Cn2c(=O)n(C[C@H](C)C(=O)O)c(=O)[nH]/c2=N\c2ccc(CCC3CC3)cc2)cc1 [Compound I-1214] | 70 |
| CCCc1ccc(/N=c2\[nH]c(=O)n(CCC(=O)OCC)c(=O)n2Cc2ccc(C)cc2)cc1C [Compound I-1215] | 27 |
| CCOC(=O)CCn1c(=O)[nH]/c(=N\c2ccc(CC(C)C)c(C)c2)n(Cc2ccc(C)cc2)c1=O [Compound I-1216] | 13 |
| COC(=O)[C@@H](C)Cn1c(=O)[nH]/c(=N\c2ccc(OC3CCC3)cc2)n(Cc2ccc(C)cc2)c1=O [Compound I-1217] | 5 |
| COC(=O)[C@@H](C)Cn1c(=O)[nH]/c(=N\c2ccc(OC3COC3)cc2)n(Cc2ccc(C)cc2)c1=O [Compound I-1218] | 61 |
| COC(=O)[C@@H](C)Cn1c(=O)[nH]/c(=N\c2ccc(OC3CCCCC3)cc2)n(Cc2ccc(C)cc2)c1=O [Compound I-1219] | 29 |
| Cc1ccc(Cn2c(=O)n(C[C@H](C)C(=O)O)c(=O)[nH]/c2=N\c2ccc(OC3CCC3)cc2)cc1 [Compound I-1220] | 13 |
| Cc1ccc(Cn2c(=O)n(C[C@H](C)C(=O)O)c(=O)[nH]/c2=N\c2ccc(OC3COC3)cc2)cc1 [Compound I-1221] | 117 |
| Cc1ccc(Cn2c(=O)n(C[C@H](C)C(=O)O)c(=O)[nH]/c2=N\c2ccc(OC3CCCCC3)cc2)cc1 [Compound I-1222] | 17 |
| CCCc1ccc(/N=c2\[nH]c(=O)n(CCC(=O)O)c(=O)n2Cc2ccc(C)cc2)cc1C [Compound I-1223] | 297 |
| Cc1ccc(Cn2c(=O)n(CCC(=O)O)c(=O)[nH]/c2=N\c2ccc(CC(C)C)c(C)c2)cc1 [Compound I-1224] | 54 |
| Cc1ccc(Cn2c(=O)n(C[C@H](C)C(=O)O)c(=O)[nH]/c2=N\c2ccc(OC3CCCC3)nc2)cc1 [Compound I-1226] | 122 |
| Cc1ccc(Cn2c(=O)n(CCC(=O)O)c(=O)[nH]/c2=N\c2ccc(Oc3cccnc3)cc2)cc1 [Compound I-1227] | 30 |
| Cc1ccc(Cn2c(=O)n(CCC(=O)O)c(=O)[nH]/c2=N\c2ccc(Oc3ccncc3)cc2)cc1 [Compound I-1228] | 9 |
| CCOC(=O)CCn1c(=O)[nH]/c(=N\c2ccc(Oc3cccnc3)cc2)n(Cc2ccc(C)cc2)c1=O [Compound I-1229] | 4 |
| CCOC(=O)CCn1c(=O)[nH]/c(=N\c2ccc(Oc3ccncc3)cc2)n(Cc2ccc(C)cc2)c1=O [Compound I-1230] | 4 |

Same assay, conditions: C6BU-1 cells stably expressing human P2X3 receptor, Fluo-3 fluorescence, FDSS 3000

| SMILES | IC50 [nM] |
| --- | --- |
| COC(=O)[C@@H](C)Cn1c(=O)[nH]/c(=N\c2ccc(CN(C)C)c(Cl)c2)n(Cc2ccc(C)cc2)c1=O [Compound I-1172] | 97 |
| CCOc1ccc(/N=c2\[nH]c(=O)n(C[C@H](C)C(=O)OC)c(=O)n2Cc2ccc(C)cc2)cc1Br [Compound I-1173] | 9 |
| CC(C)=Cc1ccc(/N=c2\[nH]c(=O)n(C[C@H](C)C(=O)O)c(=O)n2Cc2ccc(C)cc2)cc1F [Compound I-1174] | 27 |
| Cc1ccc(Cn2c(=O)n(C[C@H](C)C(=O)O)c(=O)[nH]/c2=N\c2ccc(CN(C)C)c(Cl)c2)cc1 [Compound I-1177] | 273 |
| Cc1ccc(Cn2c(=O)n(CCC(=O)O)c(=O)[nH]/c2=N\c2ccc(OC(C)C)c(Br)c2)cc1 [Compound I-1178] | 17 |
| CCOc1ccc(/N=c2\[nH]c(=O)n(C[C@H](C)C(=O)O)c(=O)n2Cc2ccc(C)cc2)cc1Br [Compound I-1179] | 33 |
| COC(=O)[C@@H](C)Cn1c(=O)[nH]/c(=N\c2ccc(OC3CCCCC3)nc2)n(Cc2ccc(C)cc2)c1=O [Compound I-1184] | 138 |
| COC(=O)[C@@H](C)Cn1c(=O)[nH]/c(=N\c2ccc(OC3CCCC3)nc2)n(Cc2ccc(C)cc2)c1=O [Compound I-1185] | 116 |
| COC(=O)[C@@H](C)Cn1c(=O)[nH]/c(=N\c2ccc(OC3CCCC3)cc2)n(Cc2ccc(C)cc2)c1=O [Compound I-1186] | 33 |
| COC(=O)[C@@H](C)Cn1c(=O)[nH]/c(=N\c2ccc(OC3CCC3)nc2)n(Cc2ccc(C)cc2)c1=O [Compound I-1187] | 58 |
